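All cell lines were grown in 96-well plates and treated with compound for 48 hours. GI50 is the concentration that inhibits growth by half.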 The source made the active and inactive calls. No stated cut-off is given here; in the data, active = GI50 up to about 1.1 µM and inactive = higher.
What was measured:
Test in all cases: NCI-60 cell line screen, 48 h
RPMI-8226 = test system: RPMI-8226
MDA-N = test system: MDA-N
MDA-MB-231 = test system: MDA-MB-231
SK-MEL-28 = test system: SK-MEL-28
CAKI-1 = test system: CAKI-1
ACHN = test system: ACHN
UACC-257 = test system: UACC-257
SF-268 = test system: SF-268
A549 = test system: A549
Hs-578T = test system: Hs-578T
CCRF-CEM = test system: CCRF-CEM
Malme-3M = test system: Malme-3M
IGROV-1 = test system: IGROV-1
K562 = test system: K562
UACC-62 = test system: UACC-62
SF-539 = test system: SF-539
HOP-92 = test system: HOP-92
HCC 2998 = test system: HCC 2998
MDA-MB-435 = test system: MDA-MB-435
T47D = test system: T47D
SR = test system: SR
RXF 393 = test system: RXF 393
KM12 = test system: KM12
TK-10 = test system: TK-10
OVCAR-3 = test system: OVCAR-3
HL-60 = test system: HL-60
NCI-H522 = test system: NCI-H522
HOP-62 = test system: HOP-62
NCI-H226 = test system: NCI-H226
MCF7 = test system: MCF7
A498 = test system: A498
SN12C = test system: SN12C
DU-145 = test system: DU-145
SK-MEL-2 = test system: SK-MEL-2
MOLT-4 = test system: MOLT-4
SK-OV-3 = test system: SK-OV-3
NCI-H23 = test system: NCI-H23
M14 = test system: M14
LOX IMVI = test system: LOX IMVI
U-251 = test system: U-251
EKVX = test system: EKVX
SNB-19 = test system: SNB-19
HCT-116 = test system: HCT-116
UO-31 = test system: UO-31
SW-620 = test system: SW-620
SNB-75 = test system: SNB-75
NCI-H460 = test system: NCI-H460
OVCAR-5 = test system: OVCAR-5
SK-MEL-5 = test system: SK-MEL-5
HCT-15 = test system: HCT-15
BT-549 = test system: BT-549
HT-29 = test system: HT-29
OVCAR-4 = test system: OVCAR-4
786-0 = test system: 786-0
PC-3 = test system: PC-3
COLO 205 = test system: COLO 205
SF-295 = test system: SF-295

## CCOC(=O)NC(NCC(O)c1ccccc1)(C(F)(F)F)C(F)(F)F (configuration not stated)
RPMI-8226
  GI50: > 100 µM (inactive)
MDA-N
  GI50: > 100 µM (inactive)
MDA-MB-231
  GI50: > 100 µM (inactive)
SK-MEL-28
  GI50: > 100 µM (inactive)
CAKI-1
  GI50: > 100 µM (inactive)
ACHN
  GI50: > 100 µM (inactive)
UACC-257
  GI50: > 100 µM (inactive)
SF-268
  GI50: > 100 µM (inactive)
A549
  GI50: > 100 µM (inactive)
Hs-578T
  GI50: > 100 µM (inactive)
CCRF-CEM
  GI50: > 100 µM (inactive)
Malme-3M
  GI50: > 100 µM (inactive)
IGROV-1
  GI50: > 100 µM (inactive)
K562
  GI50: > 100 µM (inactive)
UACC-62
  GI50: > 100 µM (inactive)
SF-539
  GI50: > 100 µM (inactive)
HOP-92
  GI50: > 100 µM (inactive)
HCC 2998
  GI50: > 100 µM (inactive)
MDA-MB-435
  GI50: > 100 µM (inactive)
T47D
  GI50: > 100 µM (inactive)
SR
  GI50: > 100 µM (inactive)
RXF 393
  GI50: 43.4 µM (inactive)
KM12
  GI50: > 100 µM (inactive)
TK-10
  GI50: > 100 µM (inactive)
OVCAR-3
  GI50: > 100 µM (inactive)
HL-60
  GI50: > 100 µM (inactive)
NCI-H522
  GI50: > 100 µM (inactive)
HOP-62
  GI50: > 100 µM (inactive)
NCI-H226
  GI50: > 100 µM (inactive)
MCF7
  GI50: > 100 µM (inactive)
A498
  GI50: > 100 µM (inactive)
SN12C
  GI50: > 100 µM (inactive)
DU-145
  GI50: > 100 µM (inactive)
SK-MEL-2
  GI50: > 100 µM (inactive)
MOLT-4
  GI50: > 100 µM (inactive)
SK-OV-3
  GI50: > 100 µM (inactive)
NCI-H23
  GI50: > 100 µM (inactive)
M14
  GI50: > 100 µM (inactive)
LOX IMVI
  GI50: > 100 µM (inactive)
U-251
  GI50: > 100 µM (inactive)
EKVX
  GI50: > 100 µM (inactive)
SNB-19
  GI50: > 100 µM (inactive)
HCT-116
  GI50: > 100 µM (inactive)
UO-31
  GI50: > 100 µM (inactive)
SW-620
  GI50: > 100 µM (inactive)
SNB-75
  GI50: > 100 µM (inactive)
NCI-H460
  GI50: > 100 µM (inactive)
OVCAR-5
  GI50: > 100 µM (inactive)
SK-MEL-5
  GI50: > 100 µM (inactive)
HCT-15
  GI50: > 100 µM
BT-549
  GI50: > 100 µM (inactive)
HT-29
  GI50: > 100 µM (inactive)

## CSC(SC)=C(C#N)C(=O)Nc1ccc(C)cc1
RPMI-8226
  GI50: 42.2 µM (inactive)
MDA-N
  GI50: > 100 µM (inactive)
MDA-MB-231
  GI50: > 100 µM (inactive)
SK-MEL-28
  GI50: > 100 µM (inactive)
CAKI-1
  GI50: 42.8 µM (inactive)
ACHN
  GI50: > 100 µM (inactive)
UACC-257
  GI50: > 100 µM (inactive)
SF-268
  GI50: > 100 µM (inactive)
OVCAR-4
  GI50: > 100 µM (inactive)
A549
  GI50: > 100 µM (inactive)
Hs-578T
  GI50: > 100 µM (inactive)
CCRF-CEM
  GI50: 34.6 µM (inactive)
Malme-3M
  GI50: > 100 µM (inactive)
IGROV-1
  GI50: 61.4 µM (inactive)
K562
  GI50: 75.3 µM (inactive)
UACC-62
  GI50: 94.4 µM (inactive)
SF-539
  GI50: > 100 µM (inactive)
HOP-92
  GI50: 15.5 µM (inactive)
HCC 2998
  GI50: > 100 µM (inactive)
786-0
  GI50: > 100 µM (inactive)
MDA-MB-435
  GI50: > 100 µM (inactive)
T47D
  GI50: > 100 µM (inactive)
PC-3
  GI50: > 100 µM (inactive)
SR
  GI50: 63 µM (inactive)
RXF 393
  GI50: > 100 µM (inactive)
KM12
  GI50: > 100 µM (inactive)
TK-10
  GI50: > 100 µM (inactive)
OVCAR-3
  GI50: > 100 µM (inactive)
HL-60
  GI50: 37.2 µM (inactive)
NCI-H522
  GI50: 28.9 µM (inactive)
HOP-62
  GI50: > 100 µM (inactive)
NCI-H226
  GI50: > 100 µM (inactive)
MCF7
  GI50: 71.9 µM (inactive)
SN12C
  GI50: > 100 µM (inactive)
DU-145
  GI50: > 100 µM (inactive)
SK-MEL-2
  GI50: > 100 µM (inactive)
MOLT-4
  GI50: 95.5 µM (inactive)
SK-OV-3
  GI50: > 100 µM (inactive)
NCI-H23
  GI50: > 100 µM (inactive)
M14
  GI50: > 100 µM (inactive)
LOX IMVI
  GI50: > 100 µM (inactive)
U-251
  GI50: > 100 µM (inactive)
EKVX
  GI50: > 100 µM (inactive)
SNB-19
  GI50: > 100 µM (inactive)
HCT-116
  GI50: 49.5 µM (inactive)
UO-31
  GI50: 61 µM (inactive)
COLO 205
  GI50: > 100 µM (inactive)
SW-620
  GI50: > 100 µM (inactive)
SF-295
  GI50: > 100 µM (inactive)
NCI-H460
  GI50: > 100 µM (inactive)
OVCAR-5
  GI50: > 100 µM (inactive)
SK-MEL-5
  GI50: > 100 µM (inactive)
HCT-15
  GI50: > 100 µM
BT-549
  GI50: > 100 µM (inactive)
HT-29
  GI50: > 100 µM (inactive)

Source: ChEMBL document CHEMBL1201862, “PubChem BioAssay data set” (2004)
